Structures can show the parent of a compound that is named as a salt. Where two headings read alike, the source gives them in different places.
Assays:
[1] = tested on: methylphenidate-induced gnawing; experiment: Methylphenidate antagonism; type: in vivo, mice; settings: for ED50: Mus musculus; for MePh Antg. ED50 (sc): *ED50 from sc administration
Catalepsy = type: in vivo, rat; settings: for Catalep. ED50 (sc) 1-6 h / Catalep. ED50 (sc) 24 h: *ED50 from sc administration
in vivo = settings: mouse, iv
[2] = target: T1, dopamine (DA) D-2 receptors (Rattus norvegicus, UniProt P61169); experiment: 3H-spiroperidol binding, dopamine D-2 receptors in rat striatal membranes
T1 construct: DA D-2 receptors in rat striatal membranes; from tissue; host or cells: rat striatal membranes
Method: (§1) 4. ^3 H-spiroperidol bindings
The affinity of compounds to dopamine (DA) D-2 receptors and serotomin2 (5-HT2) receptors was determined by in vitro receptor binding technique.
Arnt, J., J. Hyttel and J.-J. Larsen: Acta pharmacol. et toxicol.

[3] = target: T2, serotomin2 (5-HT2) receptors (Rattus norvegicus, UniProt P14842); experiment: 3H-spiroperidol binding, 5-HT2 receptors in rat cortical membranes; settings: in vitro, read-out: 3H-Spiroperidol bindings 5-HT2 receptors IC50
T2 construct: 5-HT2 receptors in rat cortical membranes; from tissue; host or cells: rat cortical membranes
Method: as §1
The affinity of compounds to dopamine (DA) D-2 receptors and serotomin2 (5-HT2) receptors was determined by in vitro receptor binding technique. Binding of ^3 H-spiroperidol to DA D-2 receptors in rat striatal membranes and to 5-HT2 receptors in rat cortical membranes was determined as described in detail by Arnt et al. (1984).
(§2) Arnt, J., J. Hyttel and J.-J. Larsen: Acta pharmacol. et toxicol. 55, 363-372, 1984.

5-HT2 receptor = target: T3, 5-HT2 receptor (Rattus norvegicus, UniProt P14842); experiment: Quipazine inhibition (head twitches); type: in vivo; settings: sc 2 hours before quipazine 15 umol/kg sc
T3 construct: from tissue; host or cells: living rats (in vivo), CNS
Method: Quipazine and a number of other compounds, which increase 5-HT2 receptor activity in the CNS, induce a characteristic rapid shake (twitch) of the head. This response is inhibited by 5-HT2 receptor antagonists (Vetulani et al. 1980, Arnt et al. 1984).
The test compound or saline is injected subcutaneously 2 hours before subcutaneous injection of quipazine hemimalecate (15umol/kg). At least 3 dose groups, each consisting of at least 4 rats, are used. The rats are individually placed in observation cages (12×25 cm) and the number of head twitches are counted 30-40 min after quipazine administration. Inhibition of head twitches is expressed in per cent of the number of head twitches in the control group. ED 50 values are calculated by log-probit analysis.
Vetulani, J., B.B. Beduarczyk, K. Reichenberg and A. Rokost: Neuropharmacology 19, 155-158, […].
as §2

[4] = ip, read-out: MePh Antg. ED50(ip)
[5] = Rattus norvegicus, po, read-out: Catalep. ED50(po) 1-6 h
[6] = i.p. test substance, mice, methylphenidate s.c. 60 mg/kg
[7] = rat striatal membranes, in vitro, read-out: 3H-Spiroperidol bindings DA-2 receptors IC50
[8] = Rattus norvegicus, po, 24 h, read-out: Catalep. ED50(po) 24 h
[9] = ip, i.p. test substance, mice, methylphenidate s.c. 60 mg/kg, read-out: MePh Antg. ED50(ip)
[10] = read-out: Catalep. ED50(po) 1-6 h, po, rat, 1-6 h
[11] = read-out: Catalep. ED50(po) 24 h, po, rat, 24 h
[12] = Rattus norvegicus, sc, 24 h, read-out: Catalep. ED50 (sc) 24 h
[13] = Rattus norvegicus, sc, read-out: Catalep. ED50 (sc) 1-6 h
[14] = mice, methylphenidate s.c. 60 mg/kg

T3 sequence (P14842 whole entry): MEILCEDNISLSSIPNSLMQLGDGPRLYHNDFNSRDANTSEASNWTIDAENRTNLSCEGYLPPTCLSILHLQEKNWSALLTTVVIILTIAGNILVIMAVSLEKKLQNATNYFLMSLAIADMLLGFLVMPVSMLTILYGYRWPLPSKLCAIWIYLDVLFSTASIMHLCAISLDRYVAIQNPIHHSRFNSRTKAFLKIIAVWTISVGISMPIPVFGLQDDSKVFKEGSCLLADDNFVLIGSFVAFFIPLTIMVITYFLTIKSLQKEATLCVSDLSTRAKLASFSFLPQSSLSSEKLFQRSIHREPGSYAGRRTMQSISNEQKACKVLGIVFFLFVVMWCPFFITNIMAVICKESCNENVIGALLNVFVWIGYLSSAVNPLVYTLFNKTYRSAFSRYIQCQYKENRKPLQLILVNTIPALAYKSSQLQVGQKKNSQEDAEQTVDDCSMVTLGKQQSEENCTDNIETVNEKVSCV
T2 sequence (P14842 whole entry): as above
T1 sequence (P61169 whole entry): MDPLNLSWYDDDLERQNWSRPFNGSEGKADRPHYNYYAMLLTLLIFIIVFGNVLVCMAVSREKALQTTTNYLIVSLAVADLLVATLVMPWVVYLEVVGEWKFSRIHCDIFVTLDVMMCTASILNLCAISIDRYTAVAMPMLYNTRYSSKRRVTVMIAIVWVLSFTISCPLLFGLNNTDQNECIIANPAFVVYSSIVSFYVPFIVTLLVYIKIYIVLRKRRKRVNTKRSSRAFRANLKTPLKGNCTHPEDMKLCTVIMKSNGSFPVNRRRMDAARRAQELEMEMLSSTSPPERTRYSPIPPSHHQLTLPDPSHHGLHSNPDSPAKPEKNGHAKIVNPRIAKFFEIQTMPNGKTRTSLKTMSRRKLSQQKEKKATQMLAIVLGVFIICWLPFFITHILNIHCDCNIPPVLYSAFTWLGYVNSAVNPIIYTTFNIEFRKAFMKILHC

Compound | IC50 [2] [nM] | IC50 [3] [nM] | Qvipaz. inh. ED50(sc) (5-HT2 receptor) [µmol/kg] | MePh Antg. ED50 (sc) [1, 14] [µmol/kg] | other results
CN(C)CCCN1c2ccccc2Sc2ccc(Cl)cc21 [Clorpromazine, reference compound] |  |  |  |  | ED50 [1, 4]: 23 µmol/kg; ED50 (Catalepsy; [5]): 70 µmol/kg; LD50 (in vivo): 120 to 180 µmol/kg
Cc1ccc2c(c1)c(C1=CCN(C)CC1)cn2-c1ccc(F)cc1.Cl [Lu 20-089, 1-(4'-Fluorophenyl)-5-methyl-3-(1-methyl-1,2,3,6-tetrahydropyridin-4-yl)-1H-indole, hydrochloride] | 0.34 | 1.8 | 0.12 |  | MePh Antg. ED50(ip) [1, 6]: 0.18 µmol/kg; Catalep. ED50(po) 1-6 h (Catalepsy; po, rat, 1-6 h): 0.43 µmol/kg; Catalep. ED50(po) 24 h (Catalepsy; po, rat, 24 h): 6.5 µmol/kg
CN1CC=C(c2cn(-c3ccc(F)cc3)c3ccc(F)cc23)CC1.Cl [Lu 21-018, 5-Fluoro-1-(4'-fluorophenyl)-3-(1-methyl-1,2,3,6-tetrahydropyridin-4-yl)-1H-indole, hydrochloride] |  | 3 | 0.15 |  | IC50 [2, 7]: 0.74 nM; ED50 [1, 4]: 0.58 µmol/kg; ED50 (Catalepsy; [8]): > 6.9 µmol/kg; ED50 (Catalepsy; [5]): 2 µmol/kg
CN1CC=C(c2cn(-c3ccc(F)cc3)c3ccc(C(F)(F)F)cc23)CC1.O=C(O)C(=O)O [Lu 21-120, 1-(4'-Fluorophenyl)-3-(1-methyl-1,2,3,6-tetrahydropyridin-4-yl)-5-trifluoromethyl-1H-indole, oxalate] | 0.61 | 3.1 | 0.03 |  | ED50 [1, 4]: 0.08 µmol/kg; ED50 (Catalepsy; [8]): 0.35 µmol/kg; ED50 (Catalepsy; [5]): 0.32 µmol/kg
CN1CCN(c2cn(-c3ccc(F)cc3)c3ccc(C(F)(F)F)cc23)CC1 [Lu 21-123, 1-(4'-Fluorophenyl)-3-(4-methylpiperazio)-5-trifluoromethyl-1H-indole, dihydrochloride] |  | 6.7 |  |  | IC50 [2, 7]: 1.7 nM; ED50 [1, 9]: 0.09 µmol/kg; ED50 (Catalepsy; [10]): 0.08 µmol/kg; ED50 (Catalepsy; [11]): 0.62 µmol/kg
Fc1ccc(-n2cc(N3CCNCC3)c3cc(C(F)(F)F)ccc32)cc1 [Lu 21-153, 1-(4'-Fluorophenyl)-3-piperazino-5-trifluoromethyl-1H-indole] |  | 6.7 | 0.37 |  | IC50 [2, 7]: 3.7 nM; ED50 [1, 9]: 2 µmol/kg; ED50 (Catalepsy; [10]): 7.1 µmol/kg; ED50 (Catalepsy; [11]): 16 µmol/kg
Br.CN1CC=C(c2cn(-c3ccc(F)cc3)c3ccc(Cl)cc23)CC1 [Lu 22-117, 5-Chloro-1-(4'-fluorophenyl)-3-(1-methyl-1,2,3,6-tetrahydropyridin-4-yl)-1H-indole, hydrobromide] | 1.2 | 0.66 | 0.052 |  | ED50 [1, 4]: 0.06 µmol/kg; ED50 (Catalepsy; [12]): > 0.37 µmol/kg; ED50 (Catalepsy; [13]): 0.09 µmol/kg
O=C1CCCN1CCN1CCN(c2cn(-c3ccc(F)cc3)c3ccc(C(F)(F)F)cc23)CC1 [Lu 22-133, 1-(4'-Fluorophenyl)-3-(4-(1-pyrrolidin-2-onylethyl)-1-piperazino)-5-trifluoromethyl-1H-indole] |  | 1.9 | 0.15 |  | ED50 [1, 9]: 0.82 µmol/kg; ED50 (Catalepsy; [12]): 1.7 µmol/kg; ED50 (Catalepsy; [13]): 0.66 µmol/kg
O=C1NCCN1CCN1CCN(c2cn(-c3ccc(F)cc3)c3ccc(C(F)(F)F)cc23)CC1 [Lu 23-001, 1-(4'-Flurophenyl)-3-(4-(2-imidazolidinon-1-ylethyl)-1-piperazino)-5-trifluoromethyl-1H-indole, dihydrobromide] |  | 18 | 0.047 |  | IC50 [2, 7]: 6.6 nM; MePh Antg. ED50(ip) [1, 6]: 0.22 µmol/kg; Catalep. ED50(po) 1-6 h (Catalepsy; po, rat, 1-6 h): 1.2 µmol/kg; Catalep. ED50(po) 24 h (Catalepsy; po, rat, 24 h): 2.6 µmol/kg
O=C1CCCN1CCN1CC=C(c2cn(-c3ccc(F)cc3)c3ccc([N+](=O)[O-])cc23)CC1 [Lu 23-024, 1-(4'-Fluorophenyl)-5-nitro-3-(1-pyrrolidin-2-onylethyl)-1,2,3,6-tetrahydropyridin-4-yl)-1H-indole, hydrochloride] |  | 5.3 |  |  | MePh Antg. ED50(ip) [1, 6]: 0.65 µmol/kg; Catalep. ED50 (sc) 1-6 h (Catalepsy; rat, 1-6 h): 6.8 µmol/kg; Catalep. ED50 (sc) 24 h (Catalepsy; rat, 24 h): > 10 µmol/kg
O=C1NCCN1CCN1CCC(c2cn(-c3ccc(F)cc3)c3ccccc23)CC1 [Lu 23-086, 1-(4'-Fluorophenyl)-3-(1-(2--imidazolidinon-1-ylethyl)-4-piperidyl)-1H-indole] |  | 2.9 | 0.036 | > 98 | IC50 [2, 7]: 42 nM
O=C1OCCN1CCN1CC=C(c2cn(-c3ccc(F)cc3)c3ccc([N+](=O)[O-])cc23)CC1 [Lu 23-134, 1-(4'-Fluorophenyl)-5-nitro-3-(1-(2-oxazolidinon-3-ylethyl)-1,2,36-tetrahydropyridin-4-yl)-1H-indole, maleate] | 2.8 | 15 |  | 9.0 | Catalep. ED50(po) 1-6 h (Catalepsy; po, rat, 1-6 h): 1.1 µmol/kg; Catalep. ED50(po) 24 h (Catalepsy; po, rat, 24 h): > 8.8 µmol/kg
O=C1NCCN1CCN1CC=C(c2cn(-c3ccc(F)cc3)c3ccc([N+](=O)[O-])cc23)CC1 [Lu 23-142, 1-(4'-Fluorophenyl)-3-(1-(2-imidazolidinon-1-ylethyl)-1,2,3,6-tetrahydropridin-4-yl)-5-nitro-1H-indole] |  | 6.7 |  | 2.6 | 
O=[N+]([O-])c1ccc2c(c1)c(C1=CCN(CCO)CC1)cn2-c1ccc(F)cc1 [Lu 23-150, 1-(4'-fluoropheynl)-3-(1-(2-hydroxyethyl)-1,2,3,6-tetrahydropyridin-4-yl)-5-nitro-1H-indole] | 4.7 | 10 |  | 0.07 | Catalep. ED50(po) 1-6 h (Catalepsy; po, rat, 1-6 h): 0.21 µmol/kg
OCCN1CC=C(c2cn(-c3ccc(F)cc3)c3ccc(C(F)(F)F)cc23)CC1 [Lu 23-156, 1-(4'-Fluorophenyl)-3-(1-(2-hydroxyethyl)-1,2,3,6-tetrahydropyridin-4-yl) -5-trifluoromethyl-1H-indole] | 19 | 15 | 0.03 |  | ED50 ([1]; sc, read-out: MePh Antg. ED50 (sc)): 0.07 µmol/kg; ED50 (Catalepsy; [12]): 1.1 µmol/kg; ED50 (Catalepsy; [13]): < 0.19 µmol/kg
OCCN1CC=C(c2cn(-c3ccc(F)cc3)c3ccc(F)cc23)CC1 [Lu 23-160, 5-fluoro-1-(4'-flurophenyl)-3-(1-(2-hydroxyethyl)-1,2,3,6-tetrahydropyridin-4-yl)-1H-indole, oxalate] | 11 | 34 |  | 3.4 | Catalep. ED50 (sc) 24 h (Catalepsy; rat, 24 h): 5.2 µmol/kg
Cc1nccn1CCN1CC=C(c2cn(-c3ccc(F)cc3)c3ccc(C(F)(F)F)cc23)CC1 [Lu 23-173, 1-(4'-Fluorophenyl)-3-(1-(2-methyl-1-imidazole-2-ethyl)-1,2,3,6-tetrahydropyridin-4-yl)-5-trifluoromethyl-1H-indole, difumarate] | 42 | 60 | > 7.1 | 0.77 | Catalep. ED50 (sc) 1-6 h (Catalepsy; rat, 1-6 h): 1.8 µmol/kg
OCCCN1CC=C(c2cn(-c3ccc(F)cc3)c3ccc(F)cc23)CC1 [Lu 23-175, 5-Fluor-1-(4'-fluorophenyl)-3-(1-(3-hydroxypropyl)-1,2,3,6-tetrahydropyridin-4-yl)-1H-indole, oxalate] | 11 | 6.7 |  | 0.32 | Catalep. ED50 (sc) 1-6 h (Catalepsy; rat, 1-6 h): 0.68 µmol/kg
CN1CC=C(c2cn(-c3ccsc3)c3ccc(Cl)cc23)CC1.O=C(O)/C=C\C(=O)O [Lu 24-001, 5-Chloro-3-(1-methyl-1,2,3,6-tetrahydropyridin-4-yl)-1-(3-thienyl)-1H-indole, maleate] |  | 8.8 | 0.19 |  | MePh Antg. ED50(ip) [1, 6]: 2.6 µmol/kg
CN1CC=C(c2cn(-c3ccccc3F)c3ccc([N+](=O)[O-])cc23)CC1 [Lu 24-003, 1-(2'-Fluorophenyl)-5-nitro-3-(1-methyl-1,2,3,6-tetrahydropyridin-4-yl)-1H-indole, maleat] | 6 | 14 |  | 0.09 | 

Reference: patent US4710500A, “1-(4'-fluorophenyl)-3,5-substituted indoles useful in the treatment of psychic disorders and pharmaceutical compositions thereof” (H. Lundbeck A/S, priority 1985, dated 1987)
